What is called IC50 is the point on the concentration scale where inhibition reaches its midpoint.

Consider eleven compounds from patent publication US11446287B2, “Compounds and methods for EP300 or CBP modulation and indications therefor” (Opna Immuno-Oncology SA, priority 2019, dated 2022).

The assay deals with T1, Recombinant human BRD4 containing dual bromodomains (BRD4-BD12 (1-477)) (Homo sapiens, UniProt O60885).
T1 construct: Recombinant human BRD4 containing dual bromodomains (BRD4-BD12 (1-477)); made in house; host or cells: E. coli BL21-CodonPlus (DE3), modified pET vector
Briefly: BRD4 Alphascreen binding assay. In short, it runs like this:
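AlphaScreen proximity between Ni-chelate-bound BRD4-BD12 (1-477) and streptavidin-captured H4 K5/K8/K12/K16-acetyl peptide measured after 1 h room-temperature compound incubation and 30 min with 7.5 μg/ml beads. Buffer: 50 mM HEPES pH 7.5, 50 mM NaCl, 0.01% BSA, 0.01% Triton X-100; data plate-normalized and four-parameter fit for IC50.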
In general terms: Alpha assays give light when donor and acceptor beads are brought close together.

As to `Cc1nnn(C)c1-c1cnc2c(c1)c(-c1ccc(C(=O)O)cc1OC(F)(F)F)cn2CC/C=C/C1CC1` [P-0305, (E)-4-(1-(4-cyclopropylbut-3-en-1-yl)-5-(1,4-dimethyl-1H-1,2,3-triazol-5-yl)-1H-pyrrolo[2,3-b]pyridin-3-yl)-3-(trifluoromethoxy)benzoic acid], the concentration for half-maximal inhibition (IC50) fell in the range of 8 to 1000 µM.

As for `Cc1noc(C)c1-c1cnc2c(c1)c(-c1ccc(C(=O)O)cc1OCC(F)F)cn2-c1ccncc1Cl` [P-0306, 4-(1-(3-chloropyridin-4-yl)-5-(3,5-dimethylisoxazol-4-yl)-1H-pyrrolo[2,3-b]pyridin-3-yl)-3-(2,2-difluoroethoxy)benzoic acid], the IC50 was 8 to 1000 µM.

For `Cc1noc(C)c1-c1cnc2c(c1)c(-c1ccc(C(=O)O)cc1OC(F)(F)F)cn2-c1ccccc1Cl` [P-0307, 4-(1-(2-chlorophenyl)-5-(3,5-dimethylisoxazol-4-yl)-1H-pyrrolo[2,3-b]pyridin-3-yl)-3-(trifluoromethoxy)benzoic acid], the IC50 was in the range of 1 to 8 µM.

For the compound `Cc1noc(C)c1-c1cnc2c(c1)c(-c1ccc(C(=O)O)cc1OC(F)(F)F)cn2-c1ccccc1C1CC1` [P-0308, 4-(1-(2-cyclopropylphenyl)-5-(3,5-dimethylisoxazol-4-yl)-1H-pyrrolo[2,3-b]pyridin-3-yl)-3-(trifluoromethoxy)benzoic acid], the IC50 lay within 1 to 8 µM.

As to `Cc1noc(C)c1-c1cnc2c(c1)c(-c1ccc(C(=O)O)cc1OC(F)(F)F)cn2-c1ccccc1C#N` [P-0309, 4-(1-(2-cyanophenyl)-5-(3,5-dimethylisoxazol-4-yl)-1H-pyrrolo[2,3-b]pyridin-3-yl)-3-(trifluoromethoxy)benzoic acid], the IC50 is 8 to 1000 µM.

As for `Cc1cc(C#N)ccc1-n1cc(-c2ccc(C(=O)O)cc2OC(F)(F)F)c2cc(-c3c(C)noc3C)cnc21` [P-0310, 4-(1-(4-cyano-2-methylphenyl)-5-(3,5-dimethylisoxazol-4-yl)-1H-pyrrolo[2,3-b]pyridin-3-yl)-3-(trifluoromethoxy)benzoic acid], the IC50 lay within 1 to 8 µM.

For the compound `COc1ccc(-n2cc(-c3ccc(C(=O)O)cc3OC(F)(F)F)c3cc(-c4c(C)noc4C)cnc32)c(F)c1` [P-0311, 4-(5-(3,5-dimethylisoxazol-4-yl)-1-(2-fluoro-4-methoxyphenyl)-1H-pyrrolo[2,3-b]pyridin-3-yl)-3-(trifluoromethoxy)benzoic acid], the IC50 is 1 to 8 µM.

Turning to `C=C(C)c1ccccc1-n1cc(-c2ccc(C(=O)O)cc2OC(F)(F)F)c2cc(-c3c(C)noc3C)cnc21` [P-0312, 4-(5-(3,5-dimethylisoxazol-4-yl)-1-(2-(prop-1-en-2-yl)phenyl)-1H-pyrrolo[2,3-b]pyridin-3-yl)-3-(trifluoromethoxy)benzoic acid], the IC50 lay in the range of 8 to 1000 µM.

Take `Cc1noc(C)c1-c1cnc2c(c1)c(-c1ccc(C(=O)O)cc1OC(F)(F)F)cn2-c1ccc(C#N)cc1` [P-0313, 4-(1-(4-cyanophenyl)-5-(3,5-dimethylisoxazol-4-yl)-1H-pyrrolo[2,3-b]pyridin-3-yl)-3-(trifluoromethoxy)benzoic acid]: the IC50 lay in the range of 1 to 8 µM.

In the case of `Cc1noc(C)c1-c1cnc2c(c1)c(-c1ccc(C(=O)O)cc1OC(F)(F)F)cn2-c1ccc(C(C)(C)O)cc1` [P-0314, 4-(5-(3,5-dimethylisoxazol-4-yl)-1-(4-(2-hydroxypropan-2-yl)phenyl)-1H-pyrrolo[2,3-b]pyridin-3-yl)-3-(trifluoromethoxy)benzoic acid], the IC50 was 0.0001 to 1 µM.

As to `Cc1noc(C)c1-c1cnc2c(c1)c(-c1ccc(C(=O)O)cc1OC(F)(F)F)cn2-c1ccsc1` [P-0315, 4-(5-(3,5-dimethylisoxazol-4-yl)-1-(thiophen-3-yl)-1H-pyrrolo[2,3-b]pyridin-3-yl)-3-(trifluoromethoxy)benzoic acid], the IC50 was in the range of 0.0001 to 1 µM.
